Measurements from article PMC2588526 (Nucleic Acids Research, 2008).

What was measured:
TvTgs = molecular target: T1, TvTgs (Trichomonas vaginalis, UniProt A2DM16); assay: radiometric 3H methyl transfer, DEAE filter; format: biochemical
T1 sequence (A2DM16 1-280): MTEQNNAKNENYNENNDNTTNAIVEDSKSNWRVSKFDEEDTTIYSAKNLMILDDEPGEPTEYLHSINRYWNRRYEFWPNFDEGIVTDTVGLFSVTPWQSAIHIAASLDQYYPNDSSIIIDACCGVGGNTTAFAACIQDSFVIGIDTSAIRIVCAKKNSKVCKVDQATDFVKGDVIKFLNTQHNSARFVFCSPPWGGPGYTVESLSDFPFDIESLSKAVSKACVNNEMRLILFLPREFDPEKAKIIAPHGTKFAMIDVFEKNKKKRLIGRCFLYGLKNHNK

GlTgs = molecular target: T2, GlTgs (Giardia duodenalis, UniProt A8BW33); assay: 3H methyl transfer, PEI-cellulose TLC; format: biochemical; conditions: 0.1 mM m7GDP, 5 μM [methyl-3H]AdoMet, 37 °C; single methylation to DMG
T2 sequence (A8BW33 1-258): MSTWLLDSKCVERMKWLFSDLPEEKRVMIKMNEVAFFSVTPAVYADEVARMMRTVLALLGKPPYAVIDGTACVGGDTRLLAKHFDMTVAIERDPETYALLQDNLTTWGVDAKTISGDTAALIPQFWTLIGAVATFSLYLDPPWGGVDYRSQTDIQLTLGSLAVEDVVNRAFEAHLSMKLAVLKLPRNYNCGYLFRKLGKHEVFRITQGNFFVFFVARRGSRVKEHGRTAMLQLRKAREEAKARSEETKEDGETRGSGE

[1] = substrate: C[n+]1cn([C@@H]2O[C@H](COP(=O)(O)OP(=O)(O)O)[C@@H](O)[C@H]2O)c2nc(N)[nH]c(=O)c21; assay: radiometric 3H methyl transfer, DEAE filter; format: biochemical, Trichomonas vaginalis; conditions: [methyl-3H]AdoMet co-substrate, pH 7.5, 37 °C
[2] = substrate: C[n+]1cn([C@@H]2O[C@H](COP(=O)(O)OP(=O)(O)OP(=O)(O)O)[C@@H](O)[C@H]2O)c2nc(N)[nH]c(=O)c21; assay: radiometric 3H methyl transfer, DEAE filter; format: biochemical, Trichomonas vaginalis; conditions: [methyl-3H]AdoMet co-substrate, pH 7.5, 37 °C

In the case of `Nc1ncnc2c1ncn2[C@@H]1O[C@H](CSCC[C@H](N)C(=O)O)[C@@H](O)[C@H]1O` [AdoHcy], the IC50 (TvTgs) is reported as about 250 µM.

`C[n+]1cn([C@@H]2O[C@H](COP(=O)(O)OP(=O)(O)O)[C@@H](O)[C@H]2O)c2nc(N)[nH]c(=O)c21` [m^7GDP] was tested, and the “3H methyl transfer, PEI-cellulose TLC” value (GlTgs) was “TvTgs (Tv), GlTgs (Gl) and SpTgs (Sp) were compared side by side”.

B1: TvTgs (Trichomonas vaginalis G3) (protein)
chain: T1 sequence (A2DM16 1-280)
B1 was tested, and the Km [1] was 250 +/– 30.7 μM and the Km [2] was 1.59 +/– 0.205 mM.
